Assay results from ChEMBL document CHEMBL5316298, “Discovery of Amphiphilic Xanthohumol Derivatives as Membrane-Targeting Antimicrobials against Methicillin-Resistant Staphylococcus aureus” (J Med Chem, 2023).
Activity calls are given as the source filed them. No cut-off for these calls is given here.

Legend:
Cell membrane = assay: Induction of membrane depolarization in methicillin-resistant Staphylococcus aureus 3 assessed as increase in fluorescence intensity at 8 to 16 ug/ml measured every 2 mins for 20 mins by DiSC35 dye-based fluorescence assay; type: subcellular; conditions: dose 8-16 µg/ml
[1] = Toxicity in KM mouse infected with methicillin-resistant Staphylococcus aureus 3 assessed as kidney damage at 5 to 10 mg/kg administered into skin infection site measured after 24 hrs by H and E staining based analysis; type: organism-based; conditions: in vivo, topical_or_ocular, dose 5-10 mg/kg
Staphylococcus aureus [2] = assay: Antibacterial activity against methicillin-resistant Staphylococcus aureus 3 infected in KM mouse assessed as reduction in bacterial load at infection site by measuring colony forming units at 5 mg/kg administered into skin infection site measured after 24 hrs; type: functional
Staphylococcus aureus [3] = assay: Induction of ROS production in methicillin-resistant Staphylococcus aureus 3 assessed as fold increase in intracellular ROS level at 64 ug/ml incubated for 40 mins by DCFH-DA dye based fluorescence analysis relative to control; type: functional

## CCCN(CCC)C(=O)C[N+](C)(C)CCCCOc1ccc(/C=C/C(=O)c2c(OC)cc3c(c2O)C=CC(C)(C)O3)cc1.[Br-]
Cell membrane
  Activity: Active
[1]
  Activity: Non-Toxic
Staphylococcus aureus [2]
  Activity: 3 log10CFU/g
Staphylococcus aureus [3]; dose 64 µg/ml
  fold change (FC): 7
Staphylococcus aureus [3]; dose 64.0 µg/ml
  Activity: Active
